Read-outs that look alike come from different tables or passages of the source.
How the values were obtained:
[1] = biological target: SMARCA4 (Homo sapiens, UniProt P51532); assay: HiBiT assay for protein degradation, Hela SMARCA4-HiBiT cells (A series); type: cell-based; set-up: fuse HiBiT to the carboxy terminus of SMARCA2 (Promega CS302365) or SMARCA4 (Promega CS3023225); host or cells: HeLa (CRISPR/Cas9 HiBiT knock-in); conditions: for DC50: read-out: SMARC A4 Hela HiBit DC50
Summary of the method: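 SMARCA4 degradation was measured in HeLa cells in which HiBiT had been knocked into the SMARCA4 carboxy terminus via CRISPR/Cas9 (Promega CS3023225). Cells were maintained in DMEM with FBS and penicillin-streptomycin. At the end of treatment, SMARCA4 levels were read by lytic HiBiT luminescence (Nano-Glo®, Promega N3050), and data were analyzed with GraphPad Prism.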

[2] = biological target: SMARCA2 (Homo sapiens, UniProt P51531); assay: HiBiT assay for protein degradation, Hela SMARCA2-HiBiT cells (A series); type: cell-based; set-up: Hela cells were genetically modified via CRISPR/Cas9 to fuse HiBiT to the carboxy terminus of SMARCA2; host or cells: HeLa (CRISPR/Cas9 HiBiT knock-in);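 as to SMARC A2 Hela HiBit Dmax (%): 24 h compound treatment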
Summary of the method: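 SMARCA2 degradation was measured in HeLa cells whose endogenous SMARCA2 carries a carboxy-terminal HiBiT tag introduced by CRISPR/Cas9 (Promega CS302365). Cells were maintained in DMEM with FBS and penicillin-streptomycin. SMARCA2 levels were read at the end of the experiment by Nano-Glo® HiBiT lytic luminescence (Promega N3050) and analyzed in GraphPad Prism.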

[3] = Hela SMARCA4-HiBiT cells, 24 hours treatment
[4] = Hela SMARCA2-HiBiT cells, 24 hours treatment; read-out: SMARC A2 Hela HiBit DC50
[5] = Hela SMARCA4-HiBiT cells, 24 hours treatment, read-out: SMARC A4 Hela HiBit Dmax(%)
[6] = Hela SMARCA2-HiBiT cells, 24 hours treatment; read-out: SMARC A2 Hela HiBit Dmax (%)
[7] = Hela SMARCA4-HiBiT cells, 24 hours treatment, read-out: SMARC A4 Hela HiBit Dmax

Sequence of SMARCA4 (P51532 whole entry): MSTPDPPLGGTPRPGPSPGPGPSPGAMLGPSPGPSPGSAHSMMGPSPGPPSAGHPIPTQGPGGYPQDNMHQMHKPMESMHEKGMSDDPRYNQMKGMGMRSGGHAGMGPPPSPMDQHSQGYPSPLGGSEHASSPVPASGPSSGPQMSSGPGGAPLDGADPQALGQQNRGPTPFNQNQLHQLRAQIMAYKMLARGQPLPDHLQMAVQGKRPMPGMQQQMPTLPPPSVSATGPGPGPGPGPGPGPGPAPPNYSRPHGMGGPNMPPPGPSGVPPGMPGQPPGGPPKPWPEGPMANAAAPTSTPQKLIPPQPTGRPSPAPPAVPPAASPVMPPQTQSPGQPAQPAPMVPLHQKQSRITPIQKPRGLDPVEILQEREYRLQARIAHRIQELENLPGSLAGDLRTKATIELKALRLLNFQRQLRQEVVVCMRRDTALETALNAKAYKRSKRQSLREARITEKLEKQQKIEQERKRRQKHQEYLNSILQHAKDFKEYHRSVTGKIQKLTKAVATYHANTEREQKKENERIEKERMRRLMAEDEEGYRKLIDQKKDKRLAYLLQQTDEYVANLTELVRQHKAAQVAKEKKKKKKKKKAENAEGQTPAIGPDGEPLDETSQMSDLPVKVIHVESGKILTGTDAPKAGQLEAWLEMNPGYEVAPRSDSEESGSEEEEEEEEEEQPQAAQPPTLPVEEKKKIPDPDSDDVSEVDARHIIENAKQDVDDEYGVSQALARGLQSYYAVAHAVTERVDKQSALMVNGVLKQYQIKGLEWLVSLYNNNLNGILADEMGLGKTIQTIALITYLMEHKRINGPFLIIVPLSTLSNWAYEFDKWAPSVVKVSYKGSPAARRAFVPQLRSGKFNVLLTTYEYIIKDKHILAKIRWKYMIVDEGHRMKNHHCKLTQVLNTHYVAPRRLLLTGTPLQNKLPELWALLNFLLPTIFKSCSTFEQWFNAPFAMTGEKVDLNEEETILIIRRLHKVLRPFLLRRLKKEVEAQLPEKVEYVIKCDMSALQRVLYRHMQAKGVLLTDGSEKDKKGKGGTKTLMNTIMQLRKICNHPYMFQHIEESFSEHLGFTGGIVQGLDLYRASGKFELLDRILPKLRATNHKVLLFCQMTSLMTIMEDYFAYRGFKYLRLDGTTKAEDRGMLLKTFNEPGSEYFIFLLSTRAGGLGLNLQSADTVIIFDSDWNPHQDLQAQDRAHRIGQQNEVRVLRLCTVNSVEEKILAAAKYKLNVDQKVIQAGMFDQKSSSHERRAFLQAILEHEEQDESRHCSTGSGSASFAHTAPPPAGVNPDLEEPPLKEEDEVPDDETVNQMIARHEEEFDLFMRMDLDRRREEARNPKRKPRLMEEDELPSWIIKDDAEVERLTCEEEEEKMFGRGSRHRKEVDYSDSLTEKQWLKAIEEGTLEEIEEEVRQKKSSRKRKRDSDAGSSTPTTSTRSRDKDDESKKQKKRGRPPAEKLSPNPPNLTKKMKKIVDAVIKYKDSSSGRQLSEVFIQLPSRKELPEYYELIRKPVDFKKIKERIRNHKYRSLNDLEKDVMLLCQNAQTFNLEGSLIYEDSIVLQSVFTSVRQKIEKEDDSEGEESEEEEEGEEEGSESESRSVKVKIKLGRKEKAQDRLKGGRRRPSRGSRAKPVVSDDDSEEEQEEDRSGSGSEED
Sequence of SMARCA2 (P51531 whole entry): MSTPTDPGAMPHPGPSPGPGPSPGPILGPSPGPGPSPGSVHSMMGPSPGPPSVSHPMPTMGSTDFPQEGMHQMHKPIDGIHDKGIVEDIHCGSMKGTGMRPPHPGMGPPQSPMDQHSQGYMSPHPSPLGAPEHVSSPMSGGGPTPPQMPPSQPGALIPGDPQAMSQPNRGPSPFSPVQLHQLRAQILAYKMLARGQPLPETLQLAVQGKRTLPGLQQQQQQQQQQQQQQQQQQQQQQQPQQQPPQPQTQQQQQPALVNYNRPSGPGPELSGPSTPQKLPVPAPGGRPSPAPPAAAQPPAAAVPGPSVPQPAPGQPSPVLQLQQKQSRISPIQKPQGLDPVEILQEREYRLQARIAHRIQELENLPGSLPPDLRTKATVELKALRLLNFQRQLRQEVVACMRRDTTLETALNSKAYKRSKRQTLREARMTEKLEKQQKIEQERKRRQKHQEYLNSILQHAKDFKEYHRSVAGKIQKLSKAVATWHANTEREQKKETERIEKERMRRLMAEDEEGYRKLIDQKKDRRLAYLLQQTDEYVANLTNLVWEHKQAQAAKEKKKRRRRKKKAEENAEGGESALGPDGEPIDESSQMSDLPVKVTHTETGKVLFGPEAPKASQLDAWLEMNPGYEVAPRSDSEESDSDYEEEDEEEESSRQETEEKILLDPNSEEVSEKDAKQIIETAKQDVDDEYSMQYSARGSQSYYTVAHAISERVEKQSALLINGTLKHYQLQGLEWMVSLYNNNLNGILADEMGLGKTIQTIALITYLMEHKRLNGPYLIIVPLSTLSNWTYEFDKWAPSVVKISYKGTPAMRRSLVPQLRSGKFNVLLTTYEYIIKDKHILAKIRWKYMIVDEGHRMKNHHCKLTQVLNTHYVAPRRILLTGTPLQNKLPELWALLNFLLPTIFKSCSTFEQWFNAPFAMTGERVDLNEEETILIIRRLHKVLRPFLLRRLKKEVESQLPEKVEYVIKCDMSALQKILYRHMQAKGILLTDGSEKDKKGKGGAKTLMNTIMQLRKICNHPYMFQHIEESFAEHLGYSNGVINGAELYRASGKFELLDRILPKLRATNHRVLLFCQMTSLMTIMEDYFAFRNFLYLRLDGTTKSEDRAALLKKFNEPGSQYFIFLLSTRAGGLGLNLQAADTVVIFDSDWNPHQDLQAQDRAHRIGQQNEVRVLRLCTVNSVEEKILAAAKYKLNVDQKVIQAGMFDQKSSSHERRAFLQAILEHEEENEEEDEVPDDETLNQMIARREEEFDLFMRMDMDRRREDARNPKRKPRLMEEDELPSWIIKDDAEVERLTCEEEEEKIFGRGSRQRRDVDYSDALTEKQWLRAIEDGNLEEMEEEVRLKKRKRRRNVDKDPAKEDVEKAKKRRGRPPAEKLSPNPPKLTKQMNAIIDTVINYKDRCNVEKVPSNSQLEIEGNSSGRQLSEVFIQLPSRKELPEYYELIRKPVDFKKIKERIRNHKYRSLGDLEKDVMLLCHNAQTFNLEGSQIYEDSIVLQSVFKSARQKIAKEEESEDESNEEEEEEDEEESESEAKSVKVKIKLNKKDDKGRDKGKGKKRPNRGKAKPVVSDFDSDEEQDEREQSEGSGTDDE

Cc1ncsc1-c1ccc([C@H](C)NC(=O)[C@@H]2C[C@@H](O)CN2C(=O)[C@@H](n2cc([C@H]3CC[C@H](CN4CCC(c5ccc6c(c5)-n5c(nc(=O)c7c(Br)cccc75)C65CCCCC5)CC4)CC3)nn2)C(C)(C)C)cc1 [Compound A49, (2S,4R)-1-((S)-2-(4-((1r,4S)-4-((4-(4′-bromo-5′-oxo-5′H-spiro[cyclohexane-1,7′-indolo[1,2-a]quinazolin]-10′-yl)piperidin-1-yl)methyl)cyclohexyl)-1H-1,2,3-triazol-1-yl)-3,3-dimethylbutanoyl)-4-hydroxy-N—((S)-1-(4-(4-methylthiazol-5-yl)phenyl)ethyl)pyrrolidine-2-carboxamide]
SMARC A4 Hela HiBit Dmax(%) [1, 3]: B (B (70-90% degradation))
DC50 [1, 3]: 100 to 500 nM
SMARC A2 Hela HiBit Dmax (%) ([2]; Hela SMARCA2-HiBiT cells, 24 hours treatment): A (A (>90% degradation))
DC50 [2, 4]: < 100 nM

Cc1ncsc1-c1ccc([C@H](Cn2cc([C@H]3CC[C@H](CN4CCC(c5ccc6c(n5)-n5c(nc(=O)c7c(Br)cccc75)C65CCCCC5)CC4)CC3)nn2)NC(=O)[C@@H]2C[C@@H](O)CN2C(=O)[C@@H](NC(=O)C2(F)CC2)C(C)(C)C)cc1 [Compound A34, (2S,4R)—N—((R)-2-(4-((1r,4R)-4-((4-(4′-bromo-5′-oxo-5′H-spiro[cyclohexane-1,7′-pyrido[3′,2′: 4,5]pyrrolo[1,2-a]quinazolin]-10′-yl)piperidin-1-yl)methyl)cyclohexyl)-1H-1,2,3-triazol-1-yl)-1-(4-(4-methylthiazol-5-yl)phenyl)ethyl)-1-((S)-2-(1-fluorocyclopropane-1-carboxamido)-3,3-dimethylbutanoyl)-4-hydroxypyrrolidine-2-carboxamide]
DC50 [1, 3]: > 1000 nM
Dmax [1, 5]: < 50%
DC50 [2, 4]: 501 to 1000 nM
Dmax [2, 6]: 50 to 69%

CC(C)(C)[C@@H](C(=O)N1C[C@H](O)C[C@H]1C(=O)N[C@@H](CN1CCOCC1)c1ccc(-c2ccccn2)cc1)n1cc([C@H]2CC[C@H](CN3CCC(c4ccc5c(c4)-n4c(nc(=O)c6c(Cl)cccc64)C54CCCCC4)CC3)CC2)nn1 [Compound A173, (2S,4R)-1-((S)-2-(4-((1r,4S)-4-((4-(4′-chloro-5′-oxo-5′H-spiro[cyclohexane-1,7′-indolo[1,2-a]quinazolin]-10′-yl)piperidin-1-yl)methyl)cyclohexyl)-1H-1,2,3-triazol-1-yl)-3,3-dimethylbutanoyl)-4-hydroxy-N—((R)-2-morpholino-1-(4-(pyridin-2-yl)phenyl)ethyl)pyrrolidine-2-carboxamide]
DC50 [1, 3]: > 1000 nM
Dmax [1, 7]: < 50%
DC50 [2, 4]: < 10 nM
Dmax [2, 6]: > 90%

Cc1ncsc1-c1ccc([C@H](CN2CCOCC2)NC(=O)[C@@H]2C[C@@H](O)CN2C(=O)[C@@H](n2cc([C@H]3CC[C@H](CN4CCC(c5ccc6c(c5)-n5c(nc(=O)c7c(Cl)cccc75)C6(C)C)CC4)CC3)nn2)C(C)(C)O)cc1 [Compound A159, (2S,4R)-1-((S)-2-(4-((1r,4S)-4-((4-(4-chloro-7,7-dimethyl-5-oxo-5,7-dihydroindolo[1,2-a]quinazolin-10-yl)piperidin-1-yl)methyl)cyclohexyl)-1H-1,2,3-triazol-1-yl)-3-hydroxy-3-methylbutanoyl)-4-hydroxy-N-((R)-1-(4-(4-methylthiazol-5-yl)phenyl)-2-morpholinoethyl)pyrrolidine-2-carboxamide]
DC50 [1, 3]: > 1000 nM
Dmax [1, 7]: 50 to 69%
DC50 [2, 4]: < 10 nM
Dmax [2, 6]: > 90%

Cc1ncsc1-c1ccc([C@H](CN2CCOCC2)NC(=O)[C@@H]2C[C@@H](O)CN2C(=O)[C@@H](n2cc([C@H]3CC[C@H](CN4CCC(c5ccc6c(c5)-n5c(nc(=O)c7c(Cl)cccc75)C6(C)C)CC4)CC3)nn2)C(C)(C)C)cc1 [Compound A90]
DC50 [1, 3]: > 1000 nM
Dmax [1, 7]: < 50%
DC50 [2, 4]: < 10 nM
Dmax [2, 6]: > 90%

Cc1ncsc1-c1ccc([C@H](C)NC(=O)[C@@H]2C[C@@H](O)CN2C(=O)[C@@H](NC(=O)[C@H]2CC[C@H](CN3CCC(c4ccc5c(c4)C4(CCCCC4)c4nc(=O)c6c(Br)cccc6n4-5)CC3)CC2)C(C)(C)C)cc1 [Compound A14, (2S,4R)-1-((S)-2-((1r,4S)-4-((4-(4′-bromo-5′-oxo-5′H-spiro[cyclohexane-1,7′-indolo[1,2-a]quinazolin]-9′-yl)piperidin-1-yl)methyl)cyclohexane-1-carboxamido)-3,3-dimethylbutanoyl)-4-hydroxy-N—((S)-1-(4-(4-methylthiazol-5-yl)phenyl)ethyl)pyrrolidine-2-carboxamide]
Dmax ([1]; HeLa, read-out: SMARC A4 Hela HiBit Dmax(%)): 50 to 69%
DC50 [1, 3]: 100 to 500 nM
Dmax ([2]; HeLa, read-out: SMARC A2 Hela HiBit Dmax (%)): > 90%
DC50 [2, 4]: < 100 nM

Cc1ncsc1-c1ccc([C@H](CCCCN2CCC(c3ccc4c(c3)-n3c(nc(=O)c5c(Cl)cccc53)C43CCOCC3)CC2)NC(=O)[C@@H]2C[C@@H](O)CN2C(=O)[C@@H](NC(=O)C2(F)CC2)C(C)(C)C)cc1 [Compound A10, (2S,4R)—N—((S)-5-(4-(4-chloro-5-oxo-2′,3′,5′,6′-tetrahydro-5H-spiro[indolo[1,2-a]quinazoline-7,4′-pyran]-10-yl)piperidin-1-yl)-1-(4-(4-methylthiazol-5-yl)phenyl)pentyl)-1-((S)-2-(1-fluorocyclopropane-1-carboxamido)-3,3-dimethylbutanoyl)-4-hydroxypyrrolidine-2-carboxamide]
SMARC A4 Hela HiBit DC50(nM) [1, 3]: No fit
Dmax [1, 5]: < 50%
DC50 [2, 4]: 501 to 1000 nM
Dmax [2, 6]: 50 to 69%

Cc1ncsc1-c1ccc([C@H](C)NC(=O)[C@@H]2C[C@@H](O)CN2C(=O)[C@@H](NC(=O)[C@H]2CC[C@H](CN3CCC(c4ccc5c(c4)-n4c(nc(=O)c6c(Cl)cccc64)C54CCCCC4)CC3)CC2)C(C)(C)C)cc1 [Compound A42, (2S,4R)-1-((S)-2-((1r,4S)-4-((4-(4′-chloro-5′-oxo-5′H-spiro[cyclohexane-1,7′-indolo[1,2-a]quinazolin]-10′-yl)piperidin-1-yl)methyl)cyclohexane-1-carboxamido)-3,3-dimethylbutanoyl)-4-hydroxy-N—((S)-1-(4-(4-methylthiazol-5-yl)phenyl)ethyl)pyrrolidine-2-carboxamide]
SMARC A4 Hela HiBit DC50(nM) [1, 3]: No Fit
Dmax [2, 6]: 70 to 90%
DC50 ([2]; read-out: SMARC A2 Hela HiBit DC50; Hela SMARCA2-HiBiT cells, 24 hours treatment): < 100 nM

Cc1ncsc1-c1ccc([C@H](C)NC(=O)[C@@H]2C[C@@H](O)CN2C(=O)[C@@H](NC(=O)[C@H]2CC[C@H](CN3CC(N4CCC(c5ccc6c(c5)C5(CCCCC5)c5nc(=O)c7c(Cl)cccc7n5-6)CC4)C3)CC2)C(C)(C)C)cc1 [Compound A12, (2S,4R)-1-((S)-2-((1r,4S)-4-((3-(4-(4′-chloro-5′-oxo-5′H-spiro[cyclohexane-1,7′-indolo[1,2-a]quinazolin]-9′-yl)piperidin-1-yl)azetidin-1-yl)methyl)cyclohexane-1-carboxamido)-3,3-dimethylbutanoyl)-4-hydroxy-N—((S)-1-(4-(4-methylthiazol-5-yl)phenyl)ethyl)pyrrolidine-2-carboxamide]
DC50 [1, 3]: 501 to 1000 nM
Dmax [1, 5]: 50 to 69%
DC50 [2, 4]: 100 to 500 nM
Dmax [2, 6]: 70 to 90%
